Measurements: patent US8562949B2, “Radiolabeled dihydrotetrabenazine derivatives and their use as imaging agents” (The Trustees of the University of Pennsylvania, priority 2006, dated 2013)
Where “and” joins values, the source holds several entries; their conditions need not be identical. Identical values can stand only once. Values belong to the compound of their own block, whether it stands above or below them.

Columns and labels:
[1] = Biodistribution of [18F]6a and [18F]6b in normal mice (iv injection); format: in vivo, ICR mice
Experimental: While under isoflurane anesthesia, 0.15 mL of a 0.1% bovine serum albumin solution containing [^18F]tracers (10-20 μCi) were injected directly into the tail vein of ICR mice (22-25 g, male) The mice (n=3 for each time point) were sacrificed by cervical dislocation at indicated time points post injection. The organs of interest were removed and weighed, and the radioactivity was counted with an automatic gamma counter. The percentage dose per organ was calculated by a comparison of the tissue counts to suitably diluted aliquots of the injected material. Total activities of blood were calculated under the assumption that they were 7% of the total body weight. The % dose/g of samples was calculated by comparing the sample counts with the count of the diluted initial dose.

[2] = Baboon microPET imaging (FIG. 7); format: in vivo; settings: iv, 7 mCi, 70-90 min

SMILES: COc1cc2c(cc1OCCC[18F])CCN1CC(CC(C)C)C(O)CC21 (racemic) [[^18F]6b]
remaining in brain (brain washout) ([1]; 30 min p.i., normal mice): 13% | brain uptake ([1]; mice, iv, 2 min): 7.08 % ID/g | ST/CB ratio ([1]; mice, iv, time not stated): 3.0 | Organ distribution Blood ([1]; normal mice, iv, 2 min): 2.60 ± 0.31 % dose/g | Organ distribution Bone ([1]; normal mice, iv, 2 min): 2.70 ± 0.44 % dose/g | Organ distribution Brain ([1]; normal mice, iv, 2 min): 7.08 % dose/g and 7.08 ± 2.17 % dose/g | Organ distribution Heart ([1]; normal mice, iv, 2 min): 6.79 ± 1.49 % dose/g | Organ distribution Kidney ([1]; normal mice, iv, 2 min): 16.1 ± 3.13 % dose/g | Organ distribution Liver ([1]; normal mice, iv, 2 min): 24.1 ± 4.93 % dose/g | Organ distribution Lung ([1]; normal mice, iv, 2 min): 7.97 ± 1.46 % dose/g | Organ distribution Muscle ([1]; normal mice, iv, 2 min): 1.17 ± 0.16 % dose/g | Organ distribution Skin ([1]; normal mice, iv, 2 min): 1.13 ± 0.25 % dose/g | Organ distribution Spleen ([1]; normal mice, iv, 2 min): 9.19 ± 0.26 % dose/g | Ratio (vs CB) Cortex ([1]; normal mice, iv, 2 min): 1.32 | Ratio (vs CB) Hippocampus ([1]; normal mice, iv, 2 min): 1.13 | Ratio (vs CB) Striatum ([1]; normal mice, iv, 2 min): 1.36 | Regional brain distribution Cerebellum (CB) ([1]; normal mice, iv, 2 min): 6.26 ± 2.89 % dose/g | Regional brain distribution Cortex ([1]; normal mice, iv, 2 min): 8.25 ± 2.51 % dose/g | Regional brain distribution Hippocampus ([1]; normal mice, iv, 2 min): 7.07 ± 1.66 % dose/g | Regional brain distribution Striatum ([1]; normal mice, iv, 2 min): 8.49 ± 1.12 % dose/g | Organ distribution Blood ([1]; normal mice, iv, 15 min): 1.75 ± 0.07 % dose/g | Organ distribution Bone ([1]; normal mice, iv, 15 min): 3.65 ± 0.49 % dose/g | Organ distribution Brain ([1]; normal mice, iv, 15 min): 2.01 ± 0.10 % dose/g | Organ distribution Heart ([1]; normal mice, iv, 15 min): 2.43 ± 0.16 % dose/g | Organ distribution Kidney ([1]; normal mice, iv, 15 min): 5.90 ± 0.25 % dose/g | Organ distribution Liver ([1]; normal mice, iv, 15 min): 15.8 ± 1.65 % dose/g | Organ distribution Lung ([1]; normal mice, iv, 15 min): 3.58 ± 0.33 % dose/g | Organ distribution Muscle ([1]; normal mice, iv, 15 min): 1.16 ± 0.35 % dose/g | Organ distribution Skin ([1]; normal mice, iv, 15 min): 1.15 ± 0.16 % dose/g | Organ distribution Spleen ([1]; normal mice, iv, 15 min): 3.38 ± 0.49 % dose/g | Ratio (vs CB) Cortex ([1]; normal mice, iv, 15 min): 1.00 | Ratio (vs CB) Hippocampus ([1]; normal mice, iv, 15 min): 1.31 | Ratio (vs CB) Striatum ([1]; normal mice, iv, 15 min): 2.53 | Regional brain distribution Cerebellum (CB) ([1]; normal mice, iv, 15 min): 1.63 ± 0.05 % dose/g | Regional brain distribution Cortex ([1]; normal mice, iv, 15 min): 1.62 ± 0.05 % dose/g | Regional brain distribution Hippocampus ([1]; normal mice, iv, 15 min): 2.14 ± 0.16 % dose/g | Regional brain distribution Striatum ([1]; normal mice, iv, 15 min): 4.12 ± 0.52 % dose/g | Organ distribution Blood ([1]; normal mice, iv, 30 min): 1.92 ± 0.22 % dose/g | Organ distribution Bone ([1]; normal mice, iv, 30 min): 9.62 ± 3.42 % dose/g | Organ distribution Brain ([1]; normal mice, iv, 30 min): 1.76 ± 0.27 % dose/g | Organ distribution Heart ([1]; normal mice, iv, 30 min): 2.67 ± 0.26 % dose/g | Organ distribution Kidney ([1]; normal mice, iv, 30 min): 6.80 ± 0.65 % dose/g | Organ distribution Liver ([1]; normal mice, iv, 30 min): 17.3 ± 2.00 % dose/g | Organ distribution Lung ([1]; normal mice, iv, 30 min): 3.46 ± 0.36 % dose/g | Organ distribution Muscle ([1]; normal mice, iv, 30 min): 1.53 ± 0.16 % dose/g | Organ distribution Skin ([1]; normal mice, iv, 30 min): 2.22 ± 0.20 % dose/g | Organ distribution Spleen ([1]; normal mice, iv, 30 min): 3.40 ± 0.43 % dose/g | Ratio (vs CB) Cortex ([1]; normal mice, iv, 30 min): 1.11 | Ratio (vs CB) Hippocampus ([1]; normal mice, iv, 30 min): 1.97 | Ratio (vs CB) Striatum ([1]; normal mice, iv, 30 min): 3.0 and 2.95 | Regional brain distribution Cerebellum (CB) ([1]; normal mice, iv, 30 min): 1.30 ± 0.19 % dose/g | Regional brain distribution Cortex ([1]; normal mice, iv, 30 min): 1.45 ± 0.38 % dose/g | Regional brain distribution Hippocampus ([1]; normal mice, iv, 30 min): 2.55 ± 1.20 % dose/g | Regional brain distribution Striatum ([1]; normal mice, iv, 30 min): 3.84 ± 1.05 % dose/g | Organ distribution Bone ([1]; normal mice, iv, 30 min, listed as [^1F]6b): 9.62 % dose/g | Organ distribution Blood ([1]; normal mice, iv, 1 hr): 1.04 ± 0.07 % dose/g | Organ distribution Bone ([1]; normal mice, iv, 1 hr): 16.6 ± 1.60 % dose/g | Organ distribution Brain ([1]; normal mice, iv, 1 hr): 0.91 ± 0.25 % dose/g | Organ distribution Heart ([1]; normal mice, iv, 1 hr): 1.74 ± 0.14 % dose/g | Organ distribution Kidney ([1]; normal mice, iv, 1 hr): 3.63 ± 0.30 % dose/g | Organ distribution Liver ([1]; normal mice, iv, 1 hr): 10.4 ± 0.95 % dose/g | Organ distribution Lung ([1]; normal mice, iv, 1 hr): 2.15 ± 0.12 % dose/g | Organ distribution Muscle ([1]; normal mice, iv, 1 hr): 1.05 ± 0.41 % dose/g | Organ distribution Skin ([1]; normal mice, iv, 1 hr): 1.38 ± 0.03 % dose/g | Organ distribution Spleen ([1]; normal mice, iv, 1 hr): 2.05 ± 0.05 % dose/g | Ratio (vs CB) Cortex ([1]; normal mice, iv, 1 hr): 1.10 | Ratio (vs CB) Hippocampus ([1]; normal mice, iv, 1 hr): 1.35 | Ratio (vs CB) Striatum ([1]; normal mice, iv, 1 hr): 2.71 | Regional brain distribution Cerebellum (CB) ([1]; normal mice, iv, 1 hr): 0.77 ± 0.06 % dose/g | Regional brain distribution Cortex ([1]; normal mice, iv, 1 hr): 0.85 ± 0.12 % dose/g | Regional brain distribution Hippocampus ([1]; normal mice, iv, 1 hr): 1.04 ± 0.16 % dose/g | Regional brain distribution Striatum ([1]; normal mice, iv, 1 hr): 2.08 ± 0.27 % dose/g | Organ distribution Blood ([1]; normal mice, iv, 2 hr): 0.56 ± 0.07 % dose/g | Organ distribution Bone ([1]; normal mice, iv, 2 hr): 17.8 ± 1.83 % dose/g | Organ distribution Brain ([1]; normal mice, iv, 2 hr): 0.53 ± 0.05 % dose/g | Organ distribution Heart ([1]; normal mice, iv, 2 hr): 1.02 ± 0.09 % dose/g | Organ distribution Kidney ([1]; normal mice, iv, 2 hr): 2.40 ± 0.51 % dose/g | Organ distribution Liver ([1]; normal mice, iv, 2 hr): 8.53 ± 1.73 % dose/g | Organ distribution Lung ([1]; normal mice, iv, 2 hr): 1.40 ± 0.09 % dose/g | Organ distribution Muscle ([1]; normal mice, iv, 2 hr): 0.56 ± 0.11 % dose/g | Organ distribution Skin ([1]; normal mice, iv, 2 hr): 1.24 ± 0.53 % dose/g | Organ distribution Spleen ([1]; normal mice, iv, 2 hr): 1.15 ± 0.41 % dose/g | Ratio (vs CB) Cortex ([1]; normal mice, iv, 2 hr): 0.91 | Ratio (vs CB) Hippocampus ([1]; normal mice, iv, 2 hr): 1.12 | Ratio (vs CB) Striatum ([1]; normal mice, iv, 2 hr): 1.94 | Regional brain distribution Cerebellum (CB) ([1]; normal mice, iv, 2 hr): 0.45 ± 0.01 % dose/g | Regional brain distribution Cortex ([1]; normal mice, iv, 2 hr): 0.41 ± 0.06 % dose/g | Regional brain distribution Hippocampus ([1]; normal mice, iv, 2 hr): 0.50 ± 0.06 % dose/g | Regional brain distribution Striatum ([1]; normal mice, iv, 2 hr): 0.87 ± 0.24 % dose/g

microPET uptake [2]: no indication of skull (bone) uptake
SMILES: COc1cc2c(cc1OCCC[18F])CCN1C[C@@H](CC(C)C)[C@H](O)C[C@H]21 [[^18F]-(+)-6b]
